Results taken from paper PMC6469177, “[^177Lu]Lu-PSMA-617 Salivary Gland Uptake Characterized by Quantitative In Vitro Autoradiography” (Pharmaceuticals, 2019).

How the values were obtained:
[1] = target: T1, prostate-specific membrane antigen (PSMA) (Sus scrofa, UniProt O77564); assay: single-concentration ([…]) blocking of […]Lu-PSMA-617 binding, autoradiography
T1 construct: gene FOLH1; pig salivary gland tissue cryosections

[2] = target: T2, prostate-specific membrane antigen (PSMA) (Homo sapiens, UniProt Q04609); assay: blocking of […]Lu-PSMA-617 binding with […] 2-PMPA, autoradiography
T2 construct: gene FOLH1

[3] = target: T1, prostate-specific membrane antigen (PSMA); assay: radioligand competition with […]Lu-PSMA-617, autoradiography on pig salivary gland tissue

T1 sequence (O77564 whole entry): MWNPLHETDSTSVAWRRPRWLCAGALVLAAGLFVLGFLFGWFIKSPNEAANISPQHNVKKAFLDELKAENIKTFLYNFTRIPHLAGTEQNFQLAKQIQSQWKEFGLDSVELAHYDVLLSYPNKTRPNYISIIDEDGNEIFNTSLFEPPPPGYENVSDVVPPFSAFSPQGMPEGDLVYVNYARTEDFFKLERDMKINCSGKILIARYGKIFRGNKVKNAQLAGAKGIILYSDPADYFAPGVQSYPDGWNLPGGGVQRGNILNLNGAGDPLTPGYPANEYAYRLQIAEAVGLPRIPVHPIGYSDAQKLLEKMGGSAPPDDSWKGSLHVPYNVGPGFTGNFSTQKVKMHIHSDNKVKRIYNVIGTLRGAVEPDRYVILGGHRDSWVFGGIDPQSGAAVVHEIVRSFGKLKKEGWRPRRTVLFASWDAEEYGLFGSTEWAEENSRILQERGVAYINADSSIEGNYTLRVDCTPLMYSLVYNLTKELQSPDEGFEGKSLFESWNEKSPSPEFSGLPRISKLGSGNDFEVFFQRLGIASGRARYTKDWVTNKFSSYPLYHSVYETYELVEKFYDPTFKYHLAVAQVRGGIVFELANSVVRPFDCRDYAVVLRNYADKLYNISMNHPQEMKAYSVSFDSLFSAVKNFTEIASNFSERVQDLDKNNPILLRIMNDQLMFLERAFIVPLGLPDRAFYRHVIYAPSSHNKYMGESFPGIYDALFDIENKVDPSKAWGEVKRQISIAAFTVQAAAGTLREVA
T2 sequence (Q04609 whole entry): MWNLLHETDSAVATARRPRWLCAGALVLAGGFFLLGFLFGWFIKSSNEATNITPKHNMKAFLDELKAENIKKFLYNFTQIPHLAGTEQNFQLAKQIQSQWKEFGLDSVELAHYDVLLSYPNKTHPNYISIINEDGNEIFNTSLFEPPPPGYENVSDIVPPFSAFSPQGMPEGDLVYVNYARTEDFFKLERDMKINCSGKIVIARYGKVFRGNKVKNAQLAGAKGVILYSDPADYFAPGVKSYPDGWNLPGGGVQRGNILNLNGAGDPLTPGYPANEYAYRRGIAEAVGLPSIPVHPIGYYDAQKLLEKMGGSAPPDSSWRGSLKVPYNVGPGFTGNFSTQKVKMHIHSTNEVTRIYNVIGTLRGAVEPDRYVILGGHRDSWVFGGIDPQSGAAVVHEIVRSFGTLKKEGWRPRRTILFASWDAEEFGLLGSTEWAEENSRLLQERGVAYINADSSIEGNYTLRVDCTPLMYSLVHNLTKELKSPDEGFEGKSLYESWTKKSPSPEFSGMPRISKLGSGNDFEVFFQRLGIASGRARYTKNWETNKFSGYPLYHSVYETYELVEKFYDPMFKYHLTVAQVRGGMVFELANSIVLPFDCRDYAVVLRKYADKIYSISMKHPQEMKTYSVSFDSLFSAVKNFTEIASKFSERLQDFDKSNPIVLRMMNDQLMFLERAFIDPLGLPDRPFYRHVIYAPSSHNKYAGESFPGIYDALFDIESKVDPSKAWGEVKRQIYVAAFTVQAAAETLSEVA

In the case of `O=C(O)CCC(CP(=O)(O)O)C(=O)O` (stereo not drawn) [2-PMPA, 2-Phosphonomethyl pentanedioic acid], the “single-concentration (80 μM) blocking of [177Lu]Lu-PSMA-617 binding, autoradiogr” value [1] is reported as “Additional blocking with 2-PMPA, a highly potent PSMA-inhibitor, resulted in a reduced uptake of radioligand in the glandular areas” and the “blocking of [177Lu]Lu-PSMA-617 binding with 80 μM 2-PMPA, autoradiography” value [2] is reported as “In contrast, LNCaP membrane pellets only showed a negligible non-specific bound fraction”.

Work on `O=C(O)CC[C@H](NC(=O)N[C@@H](CCCCNC(=O)[C@H](Cc1ccc2ccccc2c1)NC(=O)[C@H]1CC[C@H](CNC(=O)CN2CCN(CC(=O)O)CCN(CC(=O)O)CCN(CC(=O)O)CC2)CC1)C(=O)O)C(=O)O` [PSMA-617] yielded an IC50 [3] of 6 ± 0.1 nM.
